According to the NIST ThermoML archive (doi:10.1021/je101178u):
“And” between values parts separate entries of the source, which are not always exact repeats. Equal entries are not always repeated. ± gives the expanded uncertainty stated by the source.

Conditions: 423.15 K, Fluid (supercritical or subcritical phases); for viscosity: vibrating wire; for mass density: Buoyancy - hydrostatic balance with magnetic suspension - one sinker

CCC [propane]
Conditions | mass density | viscosity
1334.7 kPa | – | 0.01162 ± 7e-05 mPa·s
1335.7 kPa | 18.032 ± 0.038 kg/m3 | 0.01162 ± 7e-05 mPa·s
1454.8 kPa | 19.782 ± 0.042 kg/m3 and 19.781 ± 0.042 kg/m3 | 0.01166 ± 7e-05 mPa·s
2110 kPa | 29.905 ± 0.064 kg/m3 | 0.01189 ± 7.2e-05 mPa·s
2110.7 kPa | 29.916 ± 0.064 kg/m3 | 0.01189 ± 7.2e-05 mPa·s
2704.3 kPa | 39.922 ± 0.087 kg/m3 | 0.01217 ± 7.3e-05 mPa·s
2704.8 kPa | 39.931 ± 0.087 kg/m3 | 0.01217 ± 7.3e-05 mPa·s
3242.6 kPa | 49.821 ± 0.11 kg/m3 | 0.01248 ± 7.5e-05 mPa·s
3243.3 kPa | 49.834 ± 0.11 kg/m3 | 0.01248 ± 7.5e-05 mPa·s
3747.9 kPa | 59.965 ± 0.14 kg/m3 | 0.01283 ± 7.7e-05 mPa·s
3749.2 kPa | 59.991 ± 0.14 kg/m3 | 0.01284 ± 7.7e-05 mPa·s
4207.4 kPa | 70.041 ± 0.17 kg/m3 | 0.01323 ± 8e-05 mPa·s
4207.9 kPa | 70.052 ± 0.17 kg/m3 | 0.01323 ± 8e-05 mPa·s
4616.7 kPa | 79.819 ± 0.3 kg/m3 | 0.01365 ± 0.0001 mPa·s
4617.3 kPa | 79.834 ± 0.3 kg/m3 | 0.01365 ± 0.0001 mPa·s
5007.5 kPa | 89.97 ± 0.35 kg/m3 | 0.01412 ± 0.00013 mPa·s
5008.6 kPa | 90.002 ± 0.35 kg/m3 | 0.01412 ± 0.00013 mPa·s
5358.6 kPa | 99.87 ± 0.37 kg/m3 | 0.01462 ± 0.00013 mPa·s
5360.2 kPa | 99.917 ± 0.37 kg/m3 | 0.01462 ± 0.00013 mPa·s
5989.5 kPa | 119.759 ± 0.41 kg/m3 | 0.01573 ± 0.00014 mPa·s
5989.8 kPa | 119.769 ± 0.41 kg/m3 | 0.01573 ± 0.00014 mPa·s
6545.1 kPa | 139.717 ± 0.45 kg/m3 | 0.017 ± 0.00015 mPa·s
6545.3 kPa | 139.725 ± 0.45 kg/m3 | 0.017 ± 0.00015 mPa·s
7033 kPa | 159.017 ± 0.49 kg/m3 | 0.01838 ± 0.00016 mPa·s
7033.7 kPa | 159.048 ± 0.49 kg/m3 | 0.01838 ± 0.00016 mPa·s
7520.1 kPa | 179.397 ± 0.52 kg/m3 | 0.02002 ± 0.00017 mPa·s
7520.8 kPa | 179.425 ± 0.52 kg/m3 | 0.02002 ± 0.00017 mPa·s
7992.2 kPa | 199.277 ± 0.56 kg/m3 | 0.02182 ± 0.00018 mPa·s
7992.6 kPa | 199.294 ± 0.56 kg/m3 | 0.02182 ± 0.00018 mPa·s
8516 kPa | 220.253 ± 0.59 kg/m3 | 0.02395 ± 0.00019 mPa·s
8516.4 kPa | 220.267 ± 0.59 kg/m3 | 0.02394 ± 0.00019 mPa·s
9079.6 kPa | 240.483 ± 0.61 kg/m3 | 0.02624 ± 0.0002 mPa·s
9079.9 kPa | 240.492 ± 0.61 kg/m3 | 0.02623 ± 0.0002 mPa·s
9738.4 kPa | 260.609 ± 0.61 kg/m3 | 0.02877 ± 0.0002 mPa·s
9738.5 kPa | 260.612 ± 0.61 kg/m3 | 0.02878 ± 0.0002 mPa·s
10543 kPa | 280.635 ± 0.64 kg/m3 | 0.03161 ± 0.00022 mPa·s
10544 kPa | 280.644 ± 0.64 kg/m3 | 0.0316 ± 0.00022 mPa·s
11566 kPa | 300.645 ± 0.66 kg/m3 and 300.654 ± 0.66 kg/m3 | 0.03477 ± 0.00023 mPa·s
12882 kPa | 320.474 ± 0.69 kg/m3 | 0.03827 ± 0.00025 mPa·s
12884 kPa | 320.488 ± 0.69 kg/m3 | 0.03828 ± 0.00025 mPa·s
14693 kPa | 341.059 ± 0.72 kg/m3 | 0.04235 ± 0.00027 mPa·s and 0.04234 ± 0.00027 mPa·s
17064 kPa | 361.23 ± 0.75 kg/m3 | 0.04694 ± 0.0003 mPa·s
17065 kPa | 361.234 ± 0.75 kg/m3 | 0.04691 ± 0.0003 mPa·s
20192 kPa | 381.227 ± 0.79 kg/m3 | 0.05209 ± 0.00033 mPa·s
20193 kPa | 381.229 ± 0.79 kg/m3 | 0.05209 ± 0.00033 mPa·s
24333 kPa | 401.231 ± 0.83 kg/m3 | 0.05798 ± 0.00036 mPa·s
24334 kPa | 401.235 ± 0.83 kg/m3 | 0.05795 ± 0.00036 mPa·s
29700 kPa | 421.002 ± 0.88 kg/m3 | 0.06464 ± 0.0004 mPa·s
29703 kPa | 421.011 ± 0.88 kg/m3 | 0.06466 ± 0.0004 mPa·s
